≈ marks a conversion by molar mass, not a printed value. Numbered stars: 1 amine (or outer) side, 2 acyl side, 3 side chain; on linkers, the order of the positions; unused ones are H or OH. Square brackets hold non-standard residues; d marks the D form. Side chains are listed from the residue outwards. Peptide text beside a SMILES is read from it. * marks the point of attachment. C18 diacid = O=C(O)CCCCCCCCCCCCCCCCC(=O)*; γGlu = O=C(O)[C@H](CCC(=O)[*:2])N[*:1]; AEEA = NCCOCCOCC(=O)O; Aib = CC(C)(N)C(=O)O
What was measured:
GC receptor = target: T1, GC receptor (Homo sapiens, UniProt P47871); experiment: GC receptor mediated cAMP production in vitro (HEK293 cells transfected with GC receptor); format: cell-based; conditions: 20 min at 37° C., read-out: GCGR (nM EC50)
T1 construct: expressed in transfected cells; host or cells: HEK293 cells
Text: The medium was removed, the cells were lysed, and cAMP values were detected referring to the detection method described for the assay kit.

physchem = format: physicochemical
Protocol: 2 mg of the compound was weighed, dissolved in 1 ml of phosphate buffer solutions with different concentrations (10, 20 mM) and different pH values (7.5, 8.0), and centrifuged, and supernatant was taken. The peak area was measured by HPLC (chromatographic column: Aeris widepore XB-C18 3.6 mm, 4.6×150 mm; mobile phase: A: 0.05% TFA, B: 95% acetonitrile; detection wavelength: 214 nm) and compared with a corresponding sample standard solution, and the relative concentration of the test sample solution is calculated.

[1] = pH 7.5, Solubility, pH 7.5, 10 mM phosphate buffer
[2] = pH 7.5, Solubility, pH 7.5, 20 mM phosphate buffer
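Throughout, for Solubility: compound added at 2 mg per mL of phosphate buffer, with the dissolved amount determined in the supernatant.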

T1 sequence (P47871 26-477): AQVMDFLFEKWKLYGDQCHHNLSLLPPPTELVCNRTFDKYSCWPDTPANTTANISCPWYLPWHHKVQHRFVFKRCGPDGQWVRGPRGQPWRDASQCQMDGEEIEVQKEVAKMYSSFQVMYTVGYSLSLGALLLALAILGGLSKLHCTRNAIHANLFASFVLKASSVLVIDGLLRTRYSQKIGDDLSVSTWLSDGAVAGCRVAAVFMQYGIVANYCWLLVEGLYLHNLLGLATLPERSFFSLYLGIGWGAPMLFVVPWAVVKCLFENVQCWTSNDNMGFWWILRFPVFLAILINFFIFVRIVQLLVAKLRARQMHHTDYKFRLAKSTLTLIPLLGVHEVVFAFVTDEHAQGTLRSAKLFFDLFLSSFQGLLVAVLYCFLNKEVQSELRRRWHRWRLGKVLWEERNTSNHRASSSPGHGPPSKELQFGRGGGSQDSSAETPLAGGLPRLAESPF

Which results are given for `CCCCCCCCCCCCCCCC(=O)N[C@@H](CCC(=O)N[C@@H](CCC(=O)NCCCC[C@H](NC(=O)[C@H](CC(=O)O)NC(=O)[C@H](CO)NC(=O)[C@@H](NC(=O)[C@H](Cc1ccccc1)NC(=O)[C@@H](NC(=O)CNC(=O)[C@H](CCC(N)=O)NC(=O)C(C)(C)NC(=O)[C@@H](N)Cc1c[nH]cn1)[C@@H](C)O)[C@@H](C)O)C(=O)N[C@@H](CO)C(=O)N[C@@H](CCCCN)C(=O)N[C@@H](Cc1ccc(O)cc1)C(=O)N[C@@H](CC(C)C)C(=O)N[C@@H](CCC(=O)O)C(=O)N[C@@H](CCC(=O)O)C(=O)N[C@@H](CCCNC(=N)N)C(=O)N[C@@H](C)C(=O)N[C@@H](C)C(=O)N[C@@H](CCCCN)C(=O)N[C@@H](CCC(=O)O)C(=O)N[C@@H](Cc1ccccc1)C(=O)N[C@H](C(=O)N[C@@H](C)C(=O)N[C@@H](Cc1c[nH]c2ccccc12)C(=O)N[C@@H](CC(C)C)C(=O)N[C@@H](CCC(=O)O)C(=O)NCC(=O)NCC(=O)N1CCC[C@H]1C(=O)N[C@@H](CO)C(=O)N[C@@H](CO)C(=O)NCC(N)=O)[C@@H](C)CC)C(=O)O)C(=O)O` [Compound 21] (HELM PEPTIDE1{H.[Aib].Q.G.T.F.T.S.D.K.S.K.Y.L.E.E.R.A.A.K.E.F.I.A.W.L.E.G.G.P.S.S.G.[am]}|PEPTIDE2{[CCCCCCCCCCCCCCCC(=O)[*:2]].[gGlu].[gGlu]}$PEPTIDE1,PEPTIDE2,10:R3-3:R2$$$V2.0; N-terminus assumed)?
EC50 (GC receptor): 0.175 nM; solubility (physchem; [1]): > 2000 µg/mL; solubility (physchem; [2]): > 2000 µg/mL

With `CCCCCCCCCCCCCCCC(=O)N[C@@H](CCC(=O)N[C@@H](CCC(=O)NCCCC[C@H](NC(=O)[C@H](C)NC(=O)[C@H](CCCCN)NC(=O)[C@H](CCCNC(=N)N)NC(=O)[C@H](CCC(=O)O)NC(=O)[C@H](CCC(=O)O)NC(=O)[C@H](CC(C)C)NC(=O)[C@H](Cc1ccc(O)cc1)NC(=O)[C@H](CCCCN)NC(=O)[C@H](CO)NC(=O)[C@H](Cc1ccc(O)cc1)NC(=O)[C@H](CC(=O)O)NC(=O)[C@H](CO)NC(=O)[C@@H](NC(=O)[C@H](Cc1ccccc1)NC(=O)[C@@H](NC(=O)CNC(=O)[C@H](CCC(N)=O)NC(=O)C(C)(C)NC(=O)[C@@H](N)Cc1c[nH]cn1)[C@@H](C)O)[C@@H](C)O)C(=O)N[C@@H](CCC(=O)O)C(=O)N[C@@H](Cc1ccccc1)C(=O)N[C@H](C(=O)N[C@@H](CCC(=O)O)C(=O)N[C@@H](Cc1c[nH]c2ccccc12)C(=O)N[C@@H](CC(C)C)C(=O)N[C@@H](CCC(=O)O)C(=O)NCC(=O)NCC(=O)N1CCC[C@H]1C(=O)N[C@@H](CO)C(=O)N[C@@H](CO)C(=O)NCC(N)=O)C(C)C)C(=O)O)C(=O)O` [Compound 62] (HELM PEPTIDE1{H.[Aib].Q.G.T.F.T.S.D.Y.S.K.Y.L.E.E.R.K.A.K.E.F.V.E.W.L.E.G.G.P.S.S.G.[am]}|PEPTIDE2{[CCCCCCCCCCCCCCCC(=O)[*:2]].[gGlu].[gGlu]}$PEPTIDE1,PEPTIDE2,20:R3-3:R2$$$V2.0; N-terminus assumed) as the molecule, how does the EC50 (GC receptor) read?
Its EC50 is 0.156 nM.

What about the solubility (physchem; [1]) of the same molecule?
The solubility was 1170 µg/mL (≈ 276 µM).

And the solubility (physchem; [2])?
Its solubility is 850 µg/mL (≈ 200 µM).

What about the solubility (physchem; pH 8, Solubility, pH 8.0, 10 mM phosphate buffer) of the same molecule?
Its solubility is 1630 µg/mL (≈ 384 µM).

And the solubility (physchem; pH 8, Solubility, pH 8.0, 20 mM phosphate buffer)?
Its solubility is 1590 µg/mL (≈ 375 µM).

Which EC50 (GC receptor) does the source give for `CC[C@H](C)[C@H](NC(=O)[C@H](Cc1ccccc1)NC(=O)[C@H](CCC(=O)O)NC(=O)[C@H](CCCCNC(=O)COCCOCCNC(=O)COCCOCCNC(=O)CC[C@H](NC(=O)CCCCCCCCCCCCCCCCC(=O)O)C(=O)O)NC(=O)[C@H](C)NC(=O)[C@H](CCCCN)NC(=O)[C@H](CCCNC(=N)N)NC(=O)[C@H](CCC(=O)O)NC(=O)[C@H](CCC(=O)O)NC(=O)[C@H](CC(C)C)NC(=O)[C@H](Cc1ccc(O)cc1)NC(=O)[C@H](CCCCN)NC(=O)[C@H](CO)NC(=O)[C@H](Cc1ccc(O)cc1)NC(=O)[C@H](CC(=O)O)NC(=O)[C@H](CO)NC(=O)[C@@H](NC(=O)[C@H](Cc1ccccc1)NC(=O)[C@@H](NC(=O)CNC(=O)[C@H](CCC(N)=O)NC(=O)C(C)(C)NC(=O)[C@@H](N)Cc1c[nH]cn1)[C@@H](C)O)[C@@H](C)O)C(=O)N[C@@H](C)C(=O)N[C@@H](Cc1c[nH]c2ccccc12)C(=O)N[C@@H](CC(C)C)C(=O)N[C@@H](CCC(=O)O)C(=O)N[C@@H](C)C(=O)NCC(=O)NCC(=O)N1CCC[C@H]1C(=O)N[C@@H](CO)C(=O)N[C@@H](CO)C(=O)NCC(N)=O` [Compound 44] (H-H[Aib]QGTFTSDYSKYLEERKAK([AEEA-AEEA-γGlu-C18 diacid])EFIAWLEAGGPSSG-NH2; N-terminus assumed) here?
Its EC50 is 0.219 nM.

Which EC50 (GC receptor) does the source give for `CC(C)C[C@H](NC(=O)[C@H](Cc1c[nH]c2ccccc12)NC(=O)[C@H](CCC(=O)O)NC(=O)[C@@H](NC(=O)[C@H](Cc1ccccc1)NC(=O)[C@H](CCC(=O)O)NC(=O)[C@H](CCCCNC(=O)COCCOCCNC(=O)COCCOCCNC(=O)CC[C@H](NC(=O)CCCCCCCCCCCCCCCCC(=O)O)C(=O)O)NC(=O)[C@H](C)NC(=O)[C@H](C)NC(=O)[C@H](CCCNC(=N)N)NC(=O)[C@H](CCC(=O)O)NC(=O)[C@H](CCC(=O)O)NC(=O)[C@H](CC(C)C)NC(=O)[C@H](Cc1ccc(O)cc1)NC(=O)[C@H](CCCCN)NC(=O)[C@H](CO)NC(=O)[C@H](Cc1ccc(O)cc1)NC(=O)[C@H](CC(=O)O)NC(=O)[C@H](CO)NC(=O)[C@@H](NC(=O)[C@H](Cc1ccccc1)NC(=O)[C@@H](NC(=O)CNC(=O)[C@H](CCC(N)=O)NC(=O)C(C)(C)NC(=O)[C@@H](N)Cc1c[nH]cn1)[C@@H](C)O)[C@@H](C)O)C(C)C)C(=O)N[C@@H](CCC(=O)O)C(=O)NCC(=O)NCC(=O)N1CCC[C@H]1C(=O)N[C@@H](CO)C(=O)N[C@@H](CO)C(=O)NCC(N)=O` [Compound 32] (H-H[Aib]QGTFTSDYSKYLEERAAK([AEEA-AEEA-γGlu-C18 diacid])EFVEWLEGGPSSG-NH2; N-terminus assumed) here?
The EC50 was 0.077 nM.

With `CC(C)C[C@H](NC(=O)[C@H](Cc1c[nH]c2ccccc12)NC(=O)[C@H](C)NC(=O)[C@@H](NC(=O)[C@H](Cc1ccccc1)NC(=O)[C@H](CCC(=O)O)NC(=O)[C@H](CCCCNC(=O)COCCOCCNC(=O)COCCOCCNC(=O)CC[C@H](NC(=O)CCCCCCCCCCCCCCCCC(=O)O)C(=O)O)NC(=O)[C@H](C)NC(=O)[C@H](CCCNC(=N)N)NC(=O)[C@H](CCCCN)NC(=O)[C@H](CCC(=O)O)NC(=O)[C@H](CCC(=O)O)NC(=O)[C@H](CC(C)C)NC(=O)[C@H](Cc1ccc(O)cc1)NC(=O)[C@H](CCCCN)NC(=O)[C@H](CO)NC(=O)[C@H](Cc1ccc(O)cc1)NC(=O)[C@H](CC(=O)O)NC(=O)[C@H](CO)NC(=O)[C@@H](NC(=O)[C@H](Cc1ccccc1)NC(=O)[C@@H](NC(=O)CNC(=O)[C@H](CCC(N)=O)NC(=O)C(C)(C)NC(=O)[C@@H](N)Cc1c[nH]cn1)[C@@H](C)O)[C@@H](C)O)C(C)C)C(=O)N[C@@H](CCC(=O)O)C(=O)N[C@@H](C)C(=O)NCC(=O)NCC(=O)N1CCC[C@H]1C(=O)N[C@@H](CO)C(=O)N[C@@H](CO)C(=O)NCC(N)=O` [Compound 53] (H-H[Aib]QGTFTSDYSKYLEEKRAK([AEEA-AEEA-γGlu-C18 diacid])EFVAWLEAGGPSSG-NH2; N-terminus assumed) as the molecule, how does the EC50 (GC receptor) read?
Its EC50 is 0.316 nM.
